Patent publication US20010016571A1, “N-[ (R) -1-{3- (4- piperidyl) propionyl } -3-piperidylcarbonyl] -2 (S) -acetylamino-beta -alanine as fibrinogen receptor antagonist” (FUJISAWA PHARMACEUTICAL CO., LTD., priority 1996, published 2001)

Molecular target: T1, fibrinogen binding to platelets (glycoprotein IIb/IIIa) (Homo sapiens, UniProt P05106+P08514)
T1 construct: Washed human platelets were prepared from platelet-rich plasma by gel filtration; from tissue
Assay: Test 1: Fibrinogen Binding to Platelets (FITC-fibrinogen, flow cytometry)
Settings: washed human platelets activated with 20 μM ADP, fixed; 10 μg/ml FITC-fibrinogen; 30 minutes at room temperature; read-out: IC50 (dose required to inhibit the binding by 50%)
Experimental: Test 1: Fibrinogen Binding to Platelets
Washed human platelets were prepared from platelet-rich plasma by gel filtration. The washed platelets were activated with 20 μM ADP for 10 minutes and then fixed for 30 minutes with 0.8% paraformaldehyde. The platelets were then washed by centrifugation and suspended in HEPES-Tyrodes buffer containing […].
350 μl of platelets were incubated at a final concentration of 2×10^8/ml with 10 μg/ml FITC-fibrinogen and test compound. The reaction was left for 30 minutes at room temperature. The FITC fluoresence of bound fibrinogen was measured by using a FACS can flow cytometer.
Specific binding was calculated by subtracting the binding in the presence of 50-fold excess unlabeled fibrinogen. Result was expressed at IC50 value, i.e. dose required to inhibit the binding by 50%.

T1 sequence (P08514 32-887 limits assumed): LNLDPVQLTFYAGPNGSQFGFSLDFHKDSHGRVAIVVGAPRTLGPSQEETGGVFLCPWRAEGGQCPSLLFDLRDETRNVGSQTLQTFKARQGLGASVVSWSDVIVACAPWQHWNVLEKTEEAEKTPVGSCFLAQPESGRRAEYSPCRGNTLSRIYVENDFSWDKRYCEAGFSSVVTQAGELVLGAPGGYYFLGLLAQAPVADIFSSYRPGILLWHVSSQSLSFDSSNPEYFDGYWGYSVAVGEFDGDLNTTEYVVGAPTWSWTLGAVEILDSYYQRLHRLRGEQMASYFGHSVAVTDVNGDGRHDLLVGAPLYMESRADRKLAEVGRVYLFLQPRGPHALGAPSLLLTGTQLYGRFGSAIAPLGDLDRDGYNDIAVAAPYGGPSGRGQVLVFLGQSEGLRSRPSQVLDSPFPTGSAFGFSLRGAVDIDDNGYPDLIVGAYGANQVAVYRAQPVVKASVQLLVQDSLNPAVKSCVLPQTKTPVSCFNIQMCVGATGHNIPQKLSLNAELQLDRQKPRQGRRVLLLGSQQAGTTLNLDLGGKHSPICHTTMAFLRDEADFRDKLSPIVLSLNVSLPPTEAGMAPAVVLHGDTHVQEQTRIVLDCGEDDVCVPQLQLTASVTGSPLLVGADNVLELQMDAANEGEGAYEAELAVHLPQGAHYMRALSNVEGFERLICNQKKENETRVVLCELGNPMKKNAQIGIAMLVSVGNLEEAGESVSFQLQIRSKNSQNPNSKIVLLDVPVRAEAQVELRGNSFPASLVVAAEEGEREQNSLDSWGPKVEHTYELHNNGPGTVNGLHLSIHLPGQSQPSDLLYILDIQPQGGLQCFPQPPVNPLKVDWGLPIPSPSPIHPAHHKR
T1 sequence (P08514 891-1039 limits assumed): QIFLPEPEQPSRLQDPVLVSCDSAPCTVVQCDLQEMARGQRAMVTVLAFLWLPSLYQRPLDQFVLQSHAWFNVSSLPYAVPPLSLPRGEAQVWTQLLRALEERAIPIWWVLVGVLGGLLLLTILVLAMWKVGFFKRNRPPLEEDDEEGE
T1 sequence (P05106 27-788): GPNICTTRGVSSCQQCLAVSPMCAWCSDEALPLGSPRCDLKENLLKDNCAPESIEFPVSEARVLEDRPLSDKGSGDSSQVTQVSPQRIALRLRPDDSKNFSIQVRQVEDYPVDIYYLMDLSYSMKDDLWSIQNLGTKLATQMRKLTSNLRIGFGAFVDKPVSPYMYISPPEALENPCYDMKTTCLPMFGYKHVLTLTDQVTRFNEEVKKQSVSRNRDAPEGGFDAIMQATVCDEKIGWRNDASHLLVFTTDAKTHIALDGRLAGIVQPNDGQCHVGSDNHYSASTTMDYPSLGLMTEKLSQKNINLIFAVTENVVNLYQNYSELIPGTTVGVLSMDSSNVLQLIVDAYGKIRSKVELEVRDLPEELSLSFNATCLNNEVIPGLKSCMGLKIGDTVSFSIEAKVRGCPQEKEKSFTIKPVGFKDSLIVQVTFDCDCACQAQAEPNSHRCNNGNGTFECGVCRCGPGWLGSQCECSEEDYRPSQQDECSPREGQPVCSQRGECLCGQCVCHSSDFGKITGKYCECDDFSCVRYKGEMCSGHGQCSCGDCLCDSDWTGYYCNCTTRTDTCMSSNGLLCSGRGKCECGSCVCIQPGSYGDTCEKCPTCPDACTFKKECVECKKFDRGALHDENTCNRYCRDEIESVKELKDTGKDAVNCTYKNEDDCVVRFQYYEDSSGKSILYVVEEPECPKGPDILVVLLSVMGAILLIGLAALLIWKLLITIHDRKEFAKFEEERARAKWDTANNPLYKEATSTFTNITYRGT

## CC(=O)NC(CNC(=O)[C@@H]1CCCN(C(=O)CCC2CCNCC2)C1)C(=O)O (stereo partly shown) [Example 1]
  IC50: 16 nM
